The text below walks through data of ChEMBL document CHEMBL5344420, “Flexibility in the bridge of chalcone derivatives is important for the inhibition of cellular growth” (Bioorg Med Chem Lett, 2023).

The test system of the assay is A549. Put plainly: Antiproliferative activity against human A549 cells assessed as cell growth inhibition measured after 48 hrs by CellTiter Aqueous One Solution MTS assay. The format is functional, cell-based. The settings on record: A549, 48 h. (Tetrazolium dyes change colour on reduction, which living cells bring about.)
As a reminder, the IC50 is the concentration at which inhibition is half-maximal. `Cc1ccc(/C=C/C(=O)c2ccccc2)cc1`: the IC50 was determined as 16.8 µM.
The result for `O=C1/C(=C/c2ccccc2)Cc2ccccc21` reads above 30 µM; that for `COc1ccc(/C=C2\CCc3ccccc3C2=O)cc1`, above 30 µM; that for `O=C(/C=C/c1ccc(O)cc1)c1ccccc1` [4-HYDROXYCHALCONE], 26.6 µM.
The result for `Cc1ccc(/C=C2\Cc3ccccc3C2=O)cc1` reads above 30 µM; that for `Cc1ccc(/C=C2\CCc3ccccc3C2=O)cc1`, above 30 µM.
Consider `O=C1/C(=C/c2ccc(OC(F)(F)F)cc2)CCc2ccccc21`, for which the IC50 is above 30 µM.
Take `O=C1/C(=C/c2ccc(O)cc2)Cc2ccccc21`: the IC50 was above 30 µM.
With `O=C(/C=C/c1ccc(OC(F)(F)F)cc1)c1ccccc1`, the IC50 came to 5.35 µM.
Consider `O=C1/C(=C/c2ccc(OC(F)(F)F)cc2)Cc2ccccc21`, for which the IC50 is above 30 µM.
Consider `O=C1/C(=C/c2ccc(F)cc2)CCc2ccccc21`, for which the IC50 is above 30 µM.
As for `O=C1/C(=C/c2ccccc2)CCc2ccccc21`, the IC50 was above 30 µM.
The result for `O=C1/C(=C/c2ccc(F)cc2)Cc2ccccc21` reads above 30 µM.
The result for `O=C(/C=C/c1ccccc1)c1ccccc1` [CHALCONE] reads 12.2 µM; that for `COc1ccc(/C=C2\Cc3ccccc3C2=O)cc1`, above 30 µM; that for `COc1ccc(/C=C/C(=O)c2ccccc2)cc1` [4-METHOXY CHALCONE], 5.2 µM.
As for `O=C1/C(=C/c2ccc(O)cc2)CCc2ccccc21`, the IC50 is above 30 µM.
